Among the data in patent US10160726B2, “Quinolone derivatives as antibacterials” (priority 2014, dated 2018) are MIC values, retold here.

Type in all cases: cell-based
For test [1], the system named is P. aeruginosa NB52019 (wild-type PAO1). The test can be described thus: MIC, broth microdilution (CLSI).
Test [2] relates to E. coli ATCC 25922 (NB27001). Description: MIC, broth microdilution (CLSI). To be noted: Escherichia coli, read-out: Antibacterial activity (MIC) NB27001.
In test [3] the test system is P. aeruginosa NB52023-CDK0006 (gyrA T83I, parC S87L). Description: microbe, parasite or virus in culture. To be noted: Pseudomonas aeruginosa, 20 h, read-out: Antibacterial activity (MIC) NB52023-CDK0006.
The subject of test [4] is S. aureus NB01006-AVR005 (gyrA S84L, grlA S80F, grlB E471K). The test can be described thus: microbe, parasite or virus in culture. To be noted: Staphylococcus aureus, 20 h, read-out: Antibacterial activity (MIC) NB01006-AVR005.
The subject of test [5] is E. coli NB27177 (efflux deficient CGSC 11430, ΔtolC732::kan). The test can be described thus: microbe, parasite or virus in culture. To be noted: Escherichia coli, 20 h, read-out: Antibacterial activity (MIC) NB27177.
Test [6] has as its system P. aeruginosa NB52023 (efflux deficient K1542, ΔmexX ΔmexB). The test can be described thus: microbe, parasite or virus in culture. To be noted: Pseudomonas aeruginosa, 20 h, read-out: Antibacterial activity (MIC) NB52023.
Test [7] relates to S. aureus ATCC 29213 (NB01001). Description: MIC, broth microdilution (CLSI). To be noted: Staphylococcus aureus, read-out: Antibacterial activity (MIC) NB01001.
Setting [8] is: Pseudomonas aeruginosa, PAO1, 20 h; read-out: Antibacterial activity (MIC) NB52019.
Where [9] appears, read: ATCC25922, E. coli ATCC 25922, 35° C., 20 hours.
Where [10] appears, read: ATCC29213, S. aureus ATCC 29213, 35° C., 20 hours.

Values after ≈ are worked out from the molar mass of the structure shown. Where a name gives a salt, the structure may show the parent alone. Read-outs that look alike come from different tables or passages of the source.

For `COCc1cc(=O)n(C2CC2)c2c(C)c(N3CC[C@@H]([C@H](C)N)C3)c(F)cc12` [Example 48, 7-((R)-3-((S)-1-aminoethyl)pyrrolidin-1-yl)-1-cyclopropyl-6-fluoro-4-(methoxymethyl)-8-methylquinolin-2(1H)-one], the MIC in test [1] (setting [8]) was determined as 32 µg/mL (≈ 85.7 µM); in test [2] (setting [9]), 8 µg/mL (≈ 21.4 µM); in test [3], 16 µg/mL (≈ 42.8 µM); in test [4], 0.125 µg/mL (≈ 0.335 µM); in test [5], 0.06 µg/mL (≈ 0.161 µM); in test [6] it was 16 µg/mL (≈ 42.8 µM). The MIC in test [7] (setting [10]) was found to be 0.125 µg/mL (≈ 0.335 µM).
For `Cc1c(N2CC[C@@H]([C@H](C)N)C2)ccc2c(OCc3ccccc3)cc(=O)n(C3CC3)c12` [Example 71, 7-((R)-3-((S)-1-aminoethyl)pyrrolidin-1-yl)-4-(benzyloxy)-1-cyclopropyl-8-methylquinolin-2(1H)-one TFA salt], the MIC in test [1] (setting [8]) is greater than 32 µg/mL; in test [2] (setting [9]), 32 µg/mL; in test [3], greater than 32 µg/mL; in test [4], 6 µg/mL; in test [5], 6 µg/mL; in test [6], greater than 32 µg/mL. For the same compound, the MIC in test [7] (setting [10]) was 2 µg/mL.
With `CCc1cc(=O)n(C2CC2)c2c(C)c(N3CC[C@@H]([C@H](C)N)C3)c(F)cc12` [Example 24, 7-((R)-3-((S)-1-aminoethyl)pyrrolidin-1-yl)-1-cyclopropyl-4-ethyl-6-fluoro-8-methylquinolin-2(1H)-one], the MIC is greater than 32 µg/mL in test [1] (setting [8]); 8 µg/mL (≈ 22.4 µM) in test [2] (setting [9]); greater than 32 µg/mL in test [3]; 0.06 µg/mL (≈ 0.168 µM) in test [4]; 0.06 µg/mL (≈ 0.168 µM) in test [5]; greater than 32 µg/mL in test [6]. Further, the MIC in test [7] (setting [10]) worked out at 0.06 µg/mL (≈ 0.168 µM).
Turning to `COc1cc2cc(F)c(N3CC[C@@H]([C@H](C)N)C3)c(C)c2n(C2CC2)c1=O` [Example 6, 7-((R)-3-((S)-1-aminoethyl)pyrrolidin-1-yl)-1-cyclopropyl-6-fluoro-3-methoxy-8-methylquinolin-2(1H)-one], the MIC amounted to 32 µg/mL (≈ 89 µM) in test [1] (setting [8]); 2 µg/mL (≈ 5.56 µM) in test [2] (setting [9]); 32 µg/mL (≈ 89 µM) in test [3]; 0.5 µg/mL (≈ 1.39 µM) in test [4]; 0.125 µg/mL (≈ 0.348 µM) in test [5]; 8 µg/mL (≈ 22.3 µM) in test [6]. The MIC in test [7] (setting [10]) was found to be 0.125 µg/mL (≈ 0.348 µM).
As for `Cc1c(N2CC[C@@H]([C@H](C)N)C2)c(F)cc2c(OCCN(C)C)cc(=O)n(C3CC3)c12` [Example 49, 7-((R)-3-((S)-1-aminoethyl)pyrrolidin-1-yl)-1-cyclopropyl-4-(2-(dimethylamino)ethoxy)-6-fluoro-8-methylquinolin-2(1H)-one], the MIC in test [1] (Pseudomonas aeruginosa, PAO1, 20 h, read-out: Antibacterial activity (MIC) NB52019) was 8 µg/mL (≈ 19.2 µM); in test [2] (ATCC25922, 20 h), 1 µg/mL (≈ 2.4 µM); in test [3], 8 µg/mL (≈ 19.2 µM); in test [4], 0.25 µg/mL (≈ 0.6 µM); in test [5] it was 0.06 µg/mL (≈ 0.144 µM); in test [6], 4 µg/mL (≈ 9.6 µM). The MIC in test [7] (ATCC29213, 20 h) worked out at 0.125 µg/mL (≈ 0.3 µM).
For `Cc1c(N2CC[C@@H]([C@H](C)N)C2)c(F)cc2c(NS(C)(=O)=O)cc(=O)n(C3CC3)c12` [Example 37, N-(7-((R)-3-((S)-1-aminoethyl)pyrrolidin-1-yl)-1-cyclopropyl-6-fluoro-8-methyl-2-oxo-1,2-dihydroquinolin-4-yl)methanesulfonamide], the MIC in test [1] (setting [8]) was 32 µg/mL (≈ 75.7 µM); in test [2] (setting [9]), 32 µg/mL (≈ 75.7 µM); in test [3], greater than 32 µg/mL; in test [4], 16 µg/mL (≈ 37.9 µM); in test [5], 4 µg/mL (≈ 9.47 µM); in test [6], greater than 32 µg/mL. Moreover, in test [7] (setting [10]), the MIC was 8 µg/mL (≈ 18.9 µM).
In the case of `COc1cc(=O)n(C2CC2)c2c(C)c(N3CC[C@@H]([C@H](C)N)C3)c(F)cc12` [Example 67, 7-((R)-3-((S)-1-aminoethyl)pyrrolidin-1-yl)-1-cyclopropyl-6-fluoro-4-methoxy-8-methylquinolin-2(1H)-one], the MIC was determined as 32 µg/mL (≈ 89 µM) in test [1] (setting [8]); 8 µg/mL (≈ 22.3 µM) in test [2] (setting [9]); 16 µg/mL (≈ 44.5 µM) in test [3]; 0.06 µg/mL (≈ 0.167 µM) in test [4]; 0.06 µg/mL (≈ 0.167 µM) in test [5]; 8 µg/mL (≈ 22.3 µM) in test [6]. For the same compound, in test [7] (setting [10]), the MIC is 0.06 µg/mL (≈ 0.167 µM).
Consider `Cc1c(N2CCC(F)(CN)C2)c(F)c(F)c2c(CN)cc(=O)n(C3CCC3)c12` (stereo not drawn) [Example 115, 4-(aminomethyl)-7-(3-(aminomethyl)-3-fluoropyrrolidin-1-yl)-1-cyclobutyl-5,6-difluoro-8-methylquinolin-2(1H)-one TFA salt], for which the MIC in test [1] (setting [8]) is greater than 32 µg/mL; in test [2] (setting [9]), 1 µg/mL; in test [3], 16 µg/mL; in test [4], 4 µg/mL; in test [5], 0.5 µg/mL; in test [6], 8 µg/mL. Besides, the MIC in test [7] (setting [10]) was determined as 2 µg/mL.
Regarding `Cc1c(N2CC[C@@H]([C@H](C)N)C2)c(F)cc2c(CO)cc(=O)n(C3CC3)c12` [Example 47, 7-((R)-3-((S)-1-aminoethyl)pyrrolidin-1-yl)-1-cyclopropyl-6-fluoro-4-(hydroxymethyl)-8-methylquinolin-2(1H)-one], the MIC in test [1] (setting [8]) was determined as 16 µg/mL (≈ 44.5 µM); in test [2] (setting [9]) it was 16 µg/mL (≈ 44.5 µM); in test [3], 8 µg/mL (≈ 22.3 µM); in test [4], 0.25 µg/mL (≈ 0.696 µM); in test [5] it was 0.25 µg/mL (≈ 0.696 µM); in test [6], 4 µg/mL (≈ 11.1 µM). In test [7] (setting [10]), the MIC came out at 0.25 µg/mL (≈ 0.696 µM).
As to `Cc1c(N2CC[C@@H]([C@H](C)N)C2)c(F)cc2c(OCCN)cc(=O)n(C3CC3)c12` [Example 51, 4-(2-aminoethoxy)-7-((R)-3-((S)-1-aminoethyl)pyrrolidin-1-yl)-1-cyclopropyl-6-fluoro-8-methylquinolin-2(1H)-one], the MIC was 4 µg/mL (≈ 10.3 µM) in test [1] (setting [8]); 2 µg/mL (≈ 5.15 µM) in test [2] (setting [9]); 2 µg/mL (≈ 5.15 µM) in test [3]; 0.5 µg/mL (≈ 1.29 µM) in test [4]; 0.06 µg/mL (≈ 0.154 µM) in test [5]; 2 µg/mL (≈ 5.15 µM) in test [6]. In addition, the MIC in test [7] (setting [10]) came to 0.5 µg/mL (≈ 1.29 µM).
Consider `Cc1c(N2CC[C@@H]([C@H](C)N)C2)c(F)cc2c(OCCNC(=N)N)cc(=O)n(C3CC3)c12` [Example 53, 1-(2-((7-((R)-3-((S)-1-aminoethyl)pyrrolidin-1-yl)-1-cyclopropyl-6-fluoro-8-methyl-2-oxo-1,2-dihydroquinolin-4-yl)oxy)ethyl)guanidine], for which the MIC in test [1] (setting [8]) worked out at 16 µg/mL (≈ 37.2 µM); in test [2] (setting [9]) it was 4 µg/mL (≈ 9.29 µM); in test [3] it was 4 µg/mL (≈ 9.29 µM); in test [4], 0.5 µg/mL (≈ 1.16 µM); in test [5], 0.125 µg/mL (≈ 0.29 µM); in test [6] it was 4 µg/mL (≈ 9.29 µM). Moreover, the MIC in test [7] (setting [10]) is 0.5 µg/mL (≈ 1.16 µM).
As for `Cc1c(N2CC[C@@H]([C@H](C)N)C2)c(F)cc2c(OCCCc3n[nH]c(=O)o3)cc(=O)n(C3CC3)c12` [Example 65, 5-(3-((7-((R)-3-((S)-1-aminoethyl)pyrrolidin-1-yl)-1-cyclopropyl-6-fluoro-8-methyl-2-oxo-1,2-dihydroquinolin-4-yl)oxy)propyl)-1,3,4-oxadiazol-2(3H)-one], the MIC is greater than 32 µg/mL in test [1] (setting [8]); 32 µg/mL (≈ 67.9 µM) in test [2] (setting [9]); greater than 32 µg/mL in test [3]; 2 µg/mL (≈ 4.24 µM) in test [4]; 4 µg/mL (≈ 8.48 µM) in test [5]; greater than 32 µg/mL in test [6]. The MIC in test [7] (setting [10]) is 4 µg/mL (≈ 8.48 µM).
Regarding `Cc1c(N2CC[C@@H]([C@H](C)N)C2)c(F)cc2c(Cl)cc(=O)n(C3CC3)c12` [Example 44, 7-((R)-3-((S)-1-aminoethyl)pyrrolidin-1-yl)-4-chloro-1-cyclopropyl-6-fluoro-8-methylquinolin-2(1H)-one], the MIC in test [1] (setting [8]) is 8 µg/mL (≈ 22 µM); in test [2] (setting [9]), 2 µg/mL (≈ 5.5 µM); in test [3], 8 µg/mL (≈ 22 µM); in test [4], 0.03 µg/mL (≈ 0.0824 µM); in test [5], 0.03 µg/mL (≈ 0.0824 µM); in test [6], 4 µg/mL (≈ 11 µM). The MIC in test [7] (setting [10]) came out at 0.06 µg/mL (≈ 0.165 µM).
As to `CCOC(=O)/C=C/c1cc(=O)n(C2CC2)c2c(C)c(N3CC[C@@H]([C@H](C)N)C3)c(F)cc12` [Example 21, (E)-ethyl 3-(7-((R)-3-((S)-1-aminoethyl)pyrrolidin-1-yl)-1-cyclopropyl-6-fluoro-8-methyl-2-oxo-1,2-dihydroquinolin-4-yl)acrylate], the MIC in test [1] (setting [8]) is greater than 32 µg/mL; in test [2] (setting [9]), 16 µg/mL (≈ 37.4 µM); in test [3], 32 µg/mL (≈ 74.9 µM); in test [4], 0.125 µg/mL (≈ 0.292 µM); in test [5] it was 0.125 µg/mL (≈ 0.292 µM); in test [6], 32 µg/mL (≈ 74.9 µM). In test [7] (setting [10]), the MIC was 0.125 µg/mL (≈ 0.292 µM).
Consider `Cc1c(N2CCC(CN)C2)c(F)c(CN)c2ccc(=O)n(C3CC3)c12.O=C(O)C(F)(F)F` (stereo not drawn) [Example 100, 5-(aminomethyl)-7-(3-(aminomethyl)pyrrolidin-1-yl)-1-cyclopropyl-6-fluoro-8-methylquinolin-2(1H)-one TFA salt], for which the MIC in test [1] (Pseudomonas aeruginosa; P. aeruginosa wild-type PAO1; 35° C., 20 hours; read-out: Antibacterial activity (MIC) NB52019) was greater than 32 µg/mL; in test [2] (setting [9]) it was 32 µg/mL; in test [3], 16 µg/mL; in test [4] it was 4 µg/mL; in test [5] it was 2 µg/mL; in test [6], 8 µg/mL. In addition, in test [7] (setting [10]), the MIC worked out at 8 µg/mL.
